Like-named read-outs stand apart in the source and are kept apart here.
Tests used:
CEM-SS cells = assay: XTT assay, cytotoxicity (IC50), CEM-SS cells; assay type: cell-based; settings: Homo sapiens, CEM-SS, cytotoxicity, CEM-SS cells; read-out: XTT Assay IC50
Experimental: (§1) Initial anti-HIV screening was performed with CEM-SS cells and HIV-1RFusing the XTT cytoprotection assay as previously described (Weislow et al., J. National Cancer Inst. 81: 577-586, (1989)). HIV-1 isolates included common laboratory stains (RF, IIIB and MN), as well as a panel of HIV-1 clinical isolates (Cushman et al., J. Med. Chem. 37: 3040-3050, (1994)). The pyridone-resistant HIV-1A17 isolate (Nunberg et al., J. Virol., 65: 4887-4892 (1991)) was obtained from Emilio Emini at Merck Sharpe and Dohme Laboratories. Phytohemagglutinin-stimulated human peripheral blood lymphocytes (PBLs) and fresh monocyte-macrophage (Mono/MF) cultures were prepared and utilized in antiviral assays as previously described (Rice et al., Proc. Nat'l. Academy Science, USA 90: 9721-9724, (1993)); (Cushman et al., J. Med. Chem. 37: 3040-3050, (1994)). EC50 values for these cultures indicate the drug concentration that provided a 50% reduction in viral p24 production. […] The compounds can be synthesized according to the teachings of Singh et al., Sulfur Letters 8: 107-114, (1988). […] MT-2, MT-4, U1, HeLa-CD4-LTR-β-gal and 174xCEM cells were obtained from the AIDS Research and Reference Program (National Institute of Allergy and Infectious Disease, National Institutes of Health, Bethesda, Md. USA), as were the HIV-2MS and the AZT-resistant HIV-1G910-6 isolates.
(§2) Racemate and enantiomers of the cis-1,1-dioxo[1,2]dithiane-4,5-diol were synthesized and evaluated for antiviral activity in the XTT assay as described hereinabove.

HIV-1ADA = assay: antiviral assay in monocyte-macrophage cultures (p24); assay type: cell-based; settings: Human immunodeficiency virus 1, read-out: Mo/M.PHI. EC50
Experimental: Initial anti-HIV screening was performed with CEM-SS cells and HIV-1RFusing the XTT cytoprotection assay as previously described (Weislow et al., J. National Cancer Inst. 81: 577-586, (1989)). HIV-1 isolates included common laboratory stains (RF, IIIB and MN), as well as a panel of HIV-1 clinical isolates (Cushman et al., J. Med. Chem. 37: 3040-3050, (1994)). The pyridone-resistant HIV-1A17 isolate (Nunberg et al., J. Virol., 65: 4887-4892 (1991)) was obtained from Emilio Emini at Merck Sharpe and Dohme Laboratories. Phytohemagglutinin-stimulated human peripheral blood lymphocytes (PBLs) and fresh monocyte-macrophage (Mono/MF) cultures were prepared and utilized in antiviral assays as previously described (Rice et al., Proc. Nat'l. Academy Science, USA 90: 9721-9724, (1993)); (Cushman et al., J. Med. Chem. 37: 3040-3050, (1994)). EC50 values for these cultures indicate the drug concentration that provided a 50% reduction in viral p24 production. […] The compounds can be synthesized according to the teachings of Singh et al., Sulfur Letters 8: 107-114, (1988). The 4,5-cis-dihydroxy(1,1-dioxy-1,2,-dithiohexane) compound (NSC 624151) has been abbreviated as 624151 for convenience. MT-2, MT-4, U1, HeLa-CD4-LTR-β-gal and 174xCEM cells were obtained from the AIDS Research and Reference Program (National Institute of Allergy and Infectious Disease, National Institutes of Health, Bethesda, Md. USA), as were the HIV-2MS and the AZT-resistant HIV-1G910-6 isolates. […]

[1] = tested on: monocyte-macrophage (Mo/M.PHI.) cultures; assay: cytotoxicity in monocyte-macrophage cultures; assay type: cell-based
Experimental: Initial anti-HIV screening was performed with CEM-SS cells and HIV-1RFusing the XTT cytoprotection assay as previously described (Weislow et al., J. National Cancer Inst. 81: 577-586, (1989)). HIV-1 isolates included common laboratory stains (RF, IIIB and MN), as well as a panel of HIV-1 clinical isolates (Cushman et al., J. Med. Chem. 37: 3040-3050, (1994)). The pyridone-resistant HIV-1A17 isolate (Nunberg et al., J. Virol., 65: 4887-4892 (1991)) was obtained from Emilio Emini at Merck Sharpe and Dohme Laboratories. Phytohemagglutinin-stimulated human peripheral blood lymphocytes (PBLs) and fresh monocyte-macrophage (Mono/MF) cultures were prepared and utilized in antiviral assays as previously described (Rice et al., Proc. Nat'l. Academy Science, USA 90: 9721-9724, (1993)); (Cushman et al., J. Med. Chem. 37: 3040-3050, (1994)). EC50 values for these cultures indicate the drug concentration that provided a 50% reduction in viral p24 production. […] The compounds can be synthesized according to the teachings of Singh et al., Sulfur Letters 8: 107-114, (1988). The 4,5-cis-dihydroxy(1,1-dioxy-1,2,-dithiohexane) compound (NSC 624151) has been abbreviated as 624151 for convenience. MT-2, MT-4, U1, HeLa-CD4-LTR-β-gal and 174xCEM cells were obtained from the AIDS Research and Reference Program (National Institute of Allergy and Infectious Disease, National Institutes of Health, Bethesda, Md. USA), as were the HIV-2MS and the AZT-resistant HIV-1G910-6 isolates.

HIV-1RF = assay: XTT cytoprotection (cytopathicity) anti-HIV assay, CEM-SS cells; assay type: cell-based; settings: for EC50: Human immunodeficiency virus 1, CEM-SS
Experimental: as §1, §2

HIV-1 p7NC protein = target: T1, HIV-1 p7NC protein (Human immunodeficiency virus type 1 group M subtype B, UniProt P04591); assay: Trp37 zinc finger fluorescence assay (zinc ejection from p7NC); assay type: biochemical; settings: in words; for zinc ejection: FIG. 1(A)
T1 construct: recombinant HIV-1 p7NC protein
Experimental: Fluorescence measurements of the Trp^37 residue in the C-terminal zinc finger of the recombinant HIV-1 p7NC protein were performed as previously described (Rice et al., Science 270:1194, 1995). The p7NC protein was prepared at 20 μg/ml in 10 mM sodium phosphate buffer (pH 7.0), treated with 25 μM of each compound, then after indicated time intervals the samples were diluted 1/10 in 10 mM sodium phosphate buffer (pH 7.0) and the fluorescence intensity measured. The excitation and emission wavelengths utilized with the Shimadzu RF5000 spectrofluorimeter were 280 nm and 351 nm, respectively. In an alternate assay, the zinc-selective fluorescent probe N-(6-methoxy-8quinolyl-)-p-toluenesulfonamide (TSQ, Molecular Probes, Eugene, Oreg.) originally described by Fredrickson (J. Neurosci. Meth. 20:91, 1987) was utilized to measure zinc released from the p7NC protein in vitro. Briefly, 2 μM recombinant HIV-1 p7NC protein in 10 mM sodium phosphate buffer, pH 7.0, 10% glycerol was treated with 10 μM 624151 ([…] total volume in 96-well plates), and the time-dependent increase in fluorescence was measured on a Labsystems Fluoroskan II (360 nm excitation filter and 460 nm emission filter) over a period of 2 hours. Induction of alterations of p7NC proteins within intact virions involved treatment of HIV-1MN for 1 hour at 37° C. with 25 μM test compound. Samples were centrifuged 1 hour at 4° C. under 18,000×g to pellet the virus from the drug. Virus pellets were resolved by non-reducing SDS-PAGE and analyzed by immunoblot using monospecific rabbit antisera to the purified p7NC protein.
^b The percent decrease in RFU was calculated based on measurement of
the initial fluorescence of the p7NC protein before and 10 minutes after
treatment with the 25 μM of compound at ambient temperature.
The ability of 624151 to chemically interact with the zinc fingers of the HIV-1 p7NC protein was initially determined by a fluorescence assay (Rice et al., Science 270:1194-1197, (1995)) that measures a loss in intrinsic fluorescence of the tryptophan (Trp^37) residue in the second finger of the protein that occurs upon loss of zinc from the finger (Summers et al., Protein Sci. 1:563, 1992). […] As the 624151 modifies the zinc finger thiolates and the zinc is ejected over time, the metal is bound by the TSQ fluorochrome (FIG. 1(B)).
Sodium Phosphate buffer, pH 7.0 in 1 ml was treated with 25 μM of
compound. At indicated times, the mixture was diluted 1/10 and the
relative fluorescence units (RFU) measured in a Shimadzu RF5000
spectrofluorimeter with […] and Em = 351 mn. Following
loss of zinc from the Cterminal zinc finger, the Trp37 residue folds away
from the # aqueous environment and experiences a loss of fluorescence.

[2] = CEM-SS cells, HIV-1RF, read-out: XTT Assay EC50

| SMILES | IC50 (CEM-SS cells) | EC50 (HIV-1ADA) | IC50 [1] | other results |
| --- | --- | --- | --- | --- |
| CC(=O)OCC1(COC(C)=O)CSSC1 [NSC 660167] | > 200 µM | > 100 µM | > 100 µM | – |
| NC(=O)NN=C1CSSC1 [NSC 208744] | 127 µM | – | – | EC50 (HIV-1RF; [2]): 28.7 µM |
| O=S1(=O)CC(CO)(CO)CS1 [NSC 661127] | 378 µM | – | – | EC50 (HIV-1RF; [2]): 34 µM |
| [O-][S+]1C[C@@H](O)[C@H](O)CS1 (relative stereo) [NSC 663603] | 59.3 µM | > 100 µM | > 100 µM | – |
| [O-][S+]1C[C@@H](O)[C@@H](O)CS1 (relative stereo) [NSC 667090] | 103 µM | > 100 µM | > 100 µM | antiviral activity / efficacy (HIV-1RF; in words): complete abolition of antiviral activity; reactivity with the zinc fingers (HIV-1 p7NC protein): essentially a complete loss of reactivity with the zinc fingers |
| [O-][S+]1CC(CO)(CO)CS1 (stereo not shown) [NSC 661753] | > 200 µM | 46 µM | > 100 µM | – |
| O[C@@H]1CSSC[C@H]1O (relative stereo) [NSC 663605] | > 200 µM | > 100 µM | > 100 µM | – |
| O[C@@H]1CSSC[C@@H]1O [NSC 667089] | 20.1 µM | > 100 µM | > 100 µM | – |
| O=C1NC(=O)C2(CSSC2)N1 [NSC 208750] | 24.8 µM | – | – | EC50 (HIV-1RF; [2]): 1.83 µM |
| [O-][S+]1CCCCS1 (stereo not shown) [NSC 56224] | 26.2 µM | > 100 µM | > 100 µM | – |
| CC(=O)OCC1(COC(C)=O)CSS(=O)(=O)C1 [NSC 661126] | 30.3 µM | 21 µM | > 100 µM | EC50 (HIV-1RF; [2]): 9.8 µM |
| CC(=O)O[C@H]1CSS(=O)(=O)C[C@H]1OC(C)=O (relative stereo) [NSC 667091] | 9.2 µM | 25 µM | > 100 µM | – |
| CC(=O)O[C@@H]1CS[S+]([O-])C[C@H]1OC(C)=O (relative stereo) [NSC 667094] | 22.1 µM | 5.5 µM | > 100 µM | – |
| CC(=O)O[C@H]1CSSC[C@H]1OC(C)=O [NSC 667093] | > 200 µM | > 100 µM | > 100 µM | – |
| OCC1(CO)CSSC1 [NSC 72270] | > 200 µM | > 100 µM | > 100 µM | – |
| CSC[C@H](NC(=O)COc1cccc2cnccc12)C(=O)N[C@@H](Cc1ccccc1)[C@H](O)C(=O)N1CSC[C@H]1C(=O)NC(C)(C)C [KNI-272, reference compound] | – | – | – | zinc ejection (HIV-1 p7NC protein): do not |
| CC(C)OC(=O)c1cc(NC(=S)OC(C)C)ccc1Cl [UC38, reference compound] | – | – | – | zinc ejection (HIV-1 p7NC protein): do not |
| O=C(O)CCCCC1CCSS1 (stereo not shown) [NSC 628502] | > 1210 µM | – | – | EC50 (HIV-1RF; read-out: XTT Assay EC50, CEM-SS cells, HIV-1RF): 590 µM |
| O=S1(=O)CCCCS1 [NSC 627175] | 5.7 µM | 25 µM | > 100 µM | – |
| Nc1ccn([C@H]2CC[C@@H](CO)O2)c(=O)n1 [DDC, reference compound] | – | – | – | zinc ejection (HIV-1 p7NC protein): do not |
| NC1(C(=O)O)CSSC1 [NSC 212561] | 10.7 µM | – | – | EC50 (HIV-1RF; [2]): 3.06 µM |
| CC(=O)OCC1(COC(C)=O)CS[S+]([O-])C1 (stereo not shown) [NSC 661754] | 14.3 µM | > 100 µM | > 100 µM | – |

— patent publication US6046228A, “Anti-viral pharmaceutical compositions containing saturated 1,2-dithiaheterocyclic compounds and uses thereof” (priority 1999, dated 2000)
